Source: ChEMBL document CHEMBL1671661, “Inhibition of intracellular growth of Salmonella enterica serovar Typhimurium in tissue culture by antisense peptide-phosphorodiamidate morpholino oligomer” (Antimicrob Agents Chemother, 2009)
≈ marks a conversion by molar mass, not a printed value. Calls of active or inactive are those of the source. No cut-off for these calls is given here.

Legend:
Salmonella typhimurium [1] = experiment: Antibacterial activity against 9.0 x 10^7 CFU/ml Salmonella enterica serovar Typhimurium 14028s assessed as decrease in growth rate at 50 uM by spectrophotometry; type: functional, organism-based; settings: Salmonella enterica subsp. enterica serovar Typhimurium
Salmonella typhimurium [2] = experiment: Antibacterial activity against 9.0 x 10^7 CFU/ml Salmonella enterica serovar Typhimurium 14028s assessed as decrease in growth rate at 2.5 uM by spectrophotometry; type: functional, organism-based; settings: Salmonella enterica subsp. enterica serovar Typhimurium
Salmonella typhimurium [3] = experiment: Antibacterial activity against 9.0 x 10^7 CFU/ml Salmonella enterica serovar Typhimurium 14028s assessed as decrease in bacterial viable cell count at 2.5 uM by spectrophotometry; type: functional, organism-based; settings: Salmonella enterica subsp. enterica serovar Typhimurium
Salmonella typhimurium [4] = experiment: Antibacterial activity against Salmonella enterica serovar Typhimurium 14028s by CLSI M7-A7 microdilution method; type: functional, Salmonella enterica subsp. enterica serovar Typhimurium
Serum = experiment: Drug concentration in rat serum administered as single bolus dose; type: ADME, organism-based; settings: in vivo
Salmonella typhimurium [5] = experiment: Antibacterial activity against 9.0 x 10^7 CFU/ml Salmonella enterica serovar Typhimurium 14028s assessed as decrease in bacterial viable cell count at 2.5 uM by spectrophotometry relative to untreated control; type: functional, Salmonella enterica subsp. enterica serovar Typhimurium
Salmonella typhimurium [6] = experiment: Antibacterial activity against 9.0 x 10^7 CFU/ml Salmonella enterica serovar Typhimurium 14028s infected in RAW264.7 mouse macrophages assessed as decrease in intracellular bacterial level at 3 uM measured 18 hrs post infection; type: functional, organism-based; settings: Salmonella enterica subsp. enterica serovar Typhimurium
Salmonella typhimurium [7] = experiment: Antibacterial activity against 9.0 x 10^7 CFU/ml Salmonella enterica serovar Typhimurium 14028s infected in RAW264.7 mouse macrophages assessed as decrease in intracellular bacterial level at 3 uM measured 42 hrs post infection relative to untreated control; type: functional, Salmonella enterica subsp. enterica serovar Typhimurium
Salmonella typhimurium [8] = experiment: Antibacterial activity against 9.0 x 10^7 CFU/ml Salmonella enterica serovar Typhimurium 14028s infected in RAW264.7 mouse macrophages assessed as decrease in intracellular bacterial level at 3 uM measured 2 hrs post infection; type: functional, Salmonella enterica subsp. enterica serovar Typhimurium; parameters: scale not given: the % may be the effect or the level left
[9] = Salmonella enterica subsp. enterica serovar Typhimurium

SMILES	Activity (Salmonella typhimurium [1])	Activity (Salmonella typhimurium [2])	Activity (Salmonella typhimurium [3])	MIC (Salmonella typhimurium [4])	Drug uptake (Serum)	fold change (FC) (Salmonella typhimurium [5])	Activity (Salmonella typhimurium [6])	fold change (FC) (Salmonella typhimurium [7])	Activity (Salmonella typhimurium [8])	Activity (Salmonella typhimurium [7]; [9])	Activity (Salmonella typhimurium [8]; [9])
CC(=O)N[C@@H](CCCNC(=N)N)C(=O)NCCCCCC(=O)N[C@@H](CCCNC(=N)N)C(=O)N[C@@H](CCCNC(=N)N)C(=O)NCCCCCC(=O)N[C@@H](CCCNC(=N)N)C(=O)[C@H](CCCNC(=N)N)NC(=O)CCCCCNC(=O)N[C@@H](CCCNC(=N)N)C(=O)N[C@@H](CCCNC(=N)N)C(=O)NCCCCCC(=O)N[C@@H](CCCNC(=N)N)C(=O)NCCCCCC(=O)NCCC(=O)N1C[C@@H](COP(=O)(N(C)C)N2C[C@@H](COP(=O)(N(C)C)N3C[C@@H](COP(=O)(N(C)C)N4C[C@@H](COP(=O)(N(C)C)N5C[C@@H](COP(=O)(N(C)C)N6C[C@@H](COP(=O)(N(C)C)N7C[C@@H](COP(=O)(N(C)C)N8C[C@@H](COP(=O)(N(C)C)N9C[C@@H](COP(=O)(N(C)C)N%10C[C@@H](COP(=O)(N(C)C)N%11C[C@@H](CO)O[C@@H](n%12ccc(N)nc%12=O)C%11)O[C@@H](n%11cc(C)c(=O)[nH]c%11=O)C%10)O[C@@H](n%10cc(C)c(=O)[nH]c%10=O)C9)O[C@@H](n9ccc(N)nc9=O)C8)O[C@@H](n8cnc9c(=O)[nH]c(N)nc98)C7)O[C@@H](n7cnc8c(N)ncnc87)C6)O[C@@H](n6cc(C)c(=O)[nH]c6=O)C5)O[C@@H](n5cnc6c(N)ncnc65)C4)O[C@@H](n4cnc5c(=O)[nH]c(N)nc54)C3)O[C@@H](n3cc(C)c(=O)[nH]c3=O)C2)O[C@@H](n2cnc3c(=O)[nH]c(N)nc32)C1 (stereo partly drawn)	Active	inactive	Active	1.25 µM (≈ 6.92 µg/mL)	1 µg/mL						
CC1(C)S[C@@H]2[C@H](NC(=O)[C@H](N)c3ccccc3)C(=O)N2[C@H]1C(=O)O [AMPICILLIN]				20 µM (≈ 6.99 µg/mL)							
CC(=O)N[C@@H](CCCNC(=N)N)C(=O)NCCCCCC(=O)N[C@@H](CCCNC(=N)N)C(=O)N[C@@H](CCCNC(=N)N)C(=O)NCCCCCC(=O)N[C@@H](CCCNC(=N)N)C(=O)[C@H](CCCNC(=N)N)NC(=O)CCCCCNC(=O)N[C@@H](CCCNC(=N)N)C(=O)N[C@@H](CCCNC(=N)N)C(=O)NCCCCCC(=O)N[C@@H](CCCNC(=N)N)C(=O)NCCCCCC(=O)NCCC(=O)N1C[C@@H](COP(=O)(N(C)C)N2C[C@@H](COP(=O)(N3CCNCC3)N3C[C@@H](COP(=O)(N(C)C)N4C[C@@H](COP(=O)(N(C)C)N5C[C@@H](COP(=O)(N6CCNCC6)N6C[C@@H](COP(=O)(N(C)C)N7C[C@@H](COP(=O)(N(C)C)N8C[C@@H](COP(=O)(N(C)C)N9C[C@@H](COP(=O)(N(C)C)N%10C[C@@H](COP(=O)(N%11CCNCC%11)N%11C[C@@H](CO)O[C@@H](n%12ccc(N)nc%12=O)C%11)O[C@@H](n%11cc(C)c(=O)[nH]c%11=O)C%10)O[C@@H](n%10cc(C)c(=O)[nH]c%10=O)C9)O[C@@H](n9ccc(N)nc9=O)C8)O[C@@H](n8cnc9c(=O)[nH]c(N)nc98)C7)O[C@@H](n7cnc8c(N)ncnc87)C6)O[C@@H](n6cc(C)c(=O)[nH]c6=O)C5)O[C@@H](n5cnc6c(N)ncnc65)C4)O[C@@H](n4cnc5c(=O)[nH]c(N)nc54)C3)O[C@@H](n3cc(C)c(=O)[nH]c3=O)C2)O[C@@H](n2cnc3c(=O)[nH]c(N)nc32)C1 (stereo partly drawn)		Active	Active	0.156 µM (≈ 0.883 µg/mL)	1 µg/mL	3	Active	2	56%		
CC(=O)N[C@@H](CCCNC(=N)N)C(=O)NCCCCCC(=O)N[C@@H](CCCNC(=N)N)C(=O)N[C@@H](CCCNC(=N)N)C(=O)NCCCCCC(=O)N[C@@H](CCCNC(=N)N)C(=O)[C@H](CCCNC(=N)N)NC(=O)CCCCCNC(=O)N[C@@H](CCCNC(=N)N)C(=O)N[C@@H](CCCNC(=N)N)C(=O)NCCCCCC(=O)N[C@@H](CCCNC(=N)N)C(=O)NCCCCCC(=O)NCCC(=O)N1C[C@@H](COP(=O)(N(C)C)N2C[C@@H](COP(=O)(N(C)C)N3C[C@@H](COP(=O)(N(C)C)N4C[C@@H](COP(=O)(N(C)C)N5C[C@@H](COP(=O)(N(C)C)N6C[C@@H](COP(=O)(N(C)C)N7C[C@@H](COP(=O)(N(C)C)N8C[C@@H](COP(=O)(N(C)C)N9C[C@@H](COP(=O)(N(C)C)N%10C[C@@H](COP(=O)(N(C)C)N%11C[C@@H](CO)O[C@@H](n%12cc(C)c(=O)[nH]c%12=O)C%11)O[C@@H](n%11ccc(N)nc%11=O)C%10)O[C@@H](n%10cc(C)c(=O)[nH]c%10=O)C9)O[C@@H](n9ccc(N)nc9=O)C8)O[C@@H](n8cnc9c(N)ncnc98)C7)O[C@@H](n7cnc8c(=O)[nH]c(N)nc87)C6)O[C@@H](n6cnc7c(N)ncnc76)C5)O[C@@H](n5cc(C)c(=O)[nH]c5=O)C4)O[C@@H](n4cnc5c(=O)[nH]c(N)nc54)C3)O[C@@H](n3cnc4c(=O)[nH]c(N)nc43)C2)O[C@@H](n2cc(C)c(=O)[nH]c2=O)C1 (stereo partly drawn)		inactive	inactive	> 160 µM							
CC(=O)N[C@@H](CCCNC(=N)N)C(=O)NCCCCCC(=O)N[C@@H](CCCNC(=N)N)C(=O)N[C@@H](CCCNC(=N)N)C(=O)NCCCCCC(=O)N[C@@H](CCCNC(=N)N)C(=O)[C@H](CCCNC(=N)N)NC(=O)CCCCCNC(=O)N[C@@H](CCCNC(=N)N)C(=O)N[C@@H](CCCNC(=N)N)C(=O)NCCCCCC(=O)N[C@@H](CCCNC(=N)N)C(=O)NCCCCCC(=O)NCCC(=O)N1C[C@@H](COP(=O)(N2CCNCC2)N2C[C@@H](COP(=O)(N(C)C)N3C[C@@H](COP(=O)(N(C)C)N4C[C@@H](COP(=O)(N5CCNCC5)N5C[C@@H](COP(=O)(N(C)C)N6C[C@@H](COP(=O)(N(C)C)N7C[C@@H](COP(=O)(N(C)C)N8C[C@@H](COP(=O)(N(C)C)N9C[C@@H](COP(=O)(N%10CCNCC%10)N%10C[C@@H](COP(=O)(N(C)C)N%11C[C@@H](CO)O[C@@H](n%12cc(C)c(=O)[nH]c%12=O)C%11)O[C@@H](n%11ccc(N)nc%11=O)C%10)O[C@@H](n%10cc(C)c(=O)[nH]c%10=O)C9)O[C@@H](n9ccc(N)nc9=O)C8)O[C@@H](n8cnc9c(N)ncnc98)C7)O[C@@H](n7cnc8c(=O)[nH]c(N)nc87)C6)O[C@@H](n6cnc7c(N)ncnc76)C5)O[C@@H](n5cc(C)c(=O)[nH]c5=O)C4)O[C@@H](n4cnc5c(=O)[nH]c(N)nc54)C3)O[C@@H](n3cnc4c(=O)[nH]c(N)nc43)C2)O[C@@H](n2cc(C)c(=O)[nH]c2=O)C1 (stereo partly drawn)		inactive	inactive	> 160 µM			inactive			inactive	inactive
